Experimental data from ChEMBL document CHEMBL4330065, “Type IIA - Type IIB protein tyrosine kinase inhibitors hybridization as an efficient approach for potent multikinase inhibitor development: Design, synthesis, anti-proliferative activity, multikinase inhibitory activity and molecular modeling of novel indolinone-based ureides and amides” (Eur J Med Chem, 2019).

Legend:
[1] = biological target: Fibroblast growth factor receptor 1 (Homo sapiens, UniProt P11362); assay: Inhibition of FGFR-1 (unknown origin) by ELISA
[2] = biological target: Platelet-derived growth factor receptor beta (Homo sapiens, UniProt P09619); assay: Inhibition of PDGFR-beta (unknown origin) by ELISA
[3] = Cytotoxicity against human HFB4 cells after 48 hrs by SRB assay; format: cell-based
[4] = biological target: Vascular endothelial growth factor receptor 2 (Homo sapiens, UniProt P35968)
Description: Inhibition of VEGFR-2 (unknown origin) using biotinylated poly-GluTyr (4:1) as substrate after 5 mins by ELISA

HepG2 = assay: Antiproliferative activity against human HepG2 cells after 48 hrs by SRB assay; format: functional, cell-based; settings: HepG2, 48 h
A498 = assay: Antiproliferative activity against human A498 cells after 48 hrs by SRB assay; format: functional, cell-based; settings: A498, 48 h
MCF7 = assay: cells; settings: Homo sapiens, MCF7, 48 h
Description: Antiproliferative activity against human MCF7 cells after 48 hrs by SRB assay

A549 = assay: cells; settings: Homo sapiens, A549, 48 h
Description: Antiproliferative activity against human A549 cells after 48 hrs by SRB assay

Sequence of Platelet-derived growth factor receptor beta (P09619 whole entry): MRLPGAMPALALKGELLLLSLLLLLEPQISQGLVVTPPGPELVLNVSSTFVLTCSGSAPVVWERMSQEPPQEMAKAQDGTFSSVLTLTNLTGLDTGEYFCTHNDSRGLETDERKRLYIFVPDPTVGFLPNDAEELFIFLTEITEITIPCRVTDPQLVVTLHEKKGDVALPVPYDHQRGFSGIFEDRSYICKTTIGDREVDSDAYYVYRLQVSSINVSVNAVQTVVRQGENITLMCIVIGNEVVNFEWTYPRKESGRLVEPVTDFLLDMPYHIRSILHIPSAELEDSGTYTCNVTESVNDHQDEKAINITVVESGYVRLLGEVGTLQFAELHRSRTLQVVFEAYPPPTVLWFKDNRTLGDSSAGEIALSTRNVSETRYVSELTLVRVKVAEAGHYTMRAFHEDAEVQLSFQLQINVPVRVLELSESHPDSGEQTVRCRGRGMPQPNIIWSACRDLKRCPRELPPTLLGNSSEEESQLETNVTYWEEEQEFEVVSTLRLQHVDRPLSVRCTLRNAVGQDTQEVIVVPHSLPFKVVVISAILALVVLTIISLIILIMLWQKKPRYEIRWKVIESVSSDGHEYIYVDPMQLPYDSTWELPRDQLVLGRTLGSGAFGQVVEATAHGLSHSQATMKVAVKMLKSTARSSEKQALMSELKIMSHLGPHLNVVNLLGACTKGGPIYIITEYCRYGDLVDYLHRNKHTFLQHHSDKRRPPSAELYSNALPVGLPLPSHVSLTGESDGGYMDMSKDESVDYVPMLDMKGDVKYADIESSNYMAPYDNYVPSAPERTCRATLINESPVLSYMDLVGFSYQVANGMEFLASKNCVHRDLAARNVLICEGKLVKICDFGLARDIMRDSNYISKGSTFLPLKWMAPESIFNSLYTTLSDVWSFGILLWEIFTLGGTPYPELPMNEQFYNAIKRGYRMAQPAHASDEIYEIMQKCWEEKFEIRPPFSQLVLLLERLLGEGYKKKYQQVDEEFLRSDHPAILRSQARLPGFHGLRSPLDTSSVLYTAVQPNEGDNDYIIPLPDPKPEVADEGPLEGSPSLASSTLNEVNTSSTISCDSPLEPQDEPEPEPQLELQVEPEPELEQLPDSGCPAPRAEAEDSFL
Sequence of Fibroblast growth factor receptor 1 (P11362 whole entry): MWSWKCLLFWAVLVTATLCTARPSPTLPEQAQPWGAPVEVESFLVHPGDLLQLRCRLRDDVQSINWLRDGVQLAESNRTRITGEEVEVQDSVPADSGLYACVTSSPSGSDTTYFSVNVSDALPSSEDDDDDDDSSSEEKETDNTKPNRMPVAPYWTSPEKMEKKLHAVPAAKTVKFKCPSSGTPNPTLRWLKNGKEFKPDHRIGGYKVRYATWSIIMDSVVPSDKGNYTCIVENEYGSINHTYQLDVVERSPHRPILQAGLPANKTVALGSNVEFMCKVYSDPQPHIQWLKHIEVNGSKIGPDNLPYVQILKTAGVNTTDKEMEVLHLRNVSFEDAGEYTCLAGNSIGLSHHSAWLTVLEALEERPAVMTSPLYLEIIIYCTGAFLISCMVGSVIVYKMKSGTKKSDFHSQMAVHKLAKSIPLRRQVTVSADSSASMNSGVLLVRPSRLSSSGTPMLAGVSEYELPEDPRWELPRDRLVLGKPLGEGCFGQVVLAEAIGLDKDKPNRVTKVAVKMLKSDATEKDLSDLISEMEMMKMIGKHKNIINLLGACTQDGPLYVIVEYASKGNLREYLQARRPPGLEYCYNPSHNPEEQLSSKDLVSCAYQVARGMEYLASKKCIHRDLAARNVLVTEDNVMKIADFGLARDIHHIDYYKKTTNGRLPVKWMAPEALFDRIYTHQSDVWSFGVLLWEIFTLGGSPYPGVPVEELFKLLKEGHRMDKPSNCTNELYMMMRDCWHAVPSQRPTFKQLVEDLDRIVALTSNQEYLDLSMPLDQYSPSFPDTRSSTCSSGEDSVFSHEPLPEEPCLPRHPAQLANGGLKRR
Sequence of Vascular endothelial growth factor receptor 2 (P35968 whole entry): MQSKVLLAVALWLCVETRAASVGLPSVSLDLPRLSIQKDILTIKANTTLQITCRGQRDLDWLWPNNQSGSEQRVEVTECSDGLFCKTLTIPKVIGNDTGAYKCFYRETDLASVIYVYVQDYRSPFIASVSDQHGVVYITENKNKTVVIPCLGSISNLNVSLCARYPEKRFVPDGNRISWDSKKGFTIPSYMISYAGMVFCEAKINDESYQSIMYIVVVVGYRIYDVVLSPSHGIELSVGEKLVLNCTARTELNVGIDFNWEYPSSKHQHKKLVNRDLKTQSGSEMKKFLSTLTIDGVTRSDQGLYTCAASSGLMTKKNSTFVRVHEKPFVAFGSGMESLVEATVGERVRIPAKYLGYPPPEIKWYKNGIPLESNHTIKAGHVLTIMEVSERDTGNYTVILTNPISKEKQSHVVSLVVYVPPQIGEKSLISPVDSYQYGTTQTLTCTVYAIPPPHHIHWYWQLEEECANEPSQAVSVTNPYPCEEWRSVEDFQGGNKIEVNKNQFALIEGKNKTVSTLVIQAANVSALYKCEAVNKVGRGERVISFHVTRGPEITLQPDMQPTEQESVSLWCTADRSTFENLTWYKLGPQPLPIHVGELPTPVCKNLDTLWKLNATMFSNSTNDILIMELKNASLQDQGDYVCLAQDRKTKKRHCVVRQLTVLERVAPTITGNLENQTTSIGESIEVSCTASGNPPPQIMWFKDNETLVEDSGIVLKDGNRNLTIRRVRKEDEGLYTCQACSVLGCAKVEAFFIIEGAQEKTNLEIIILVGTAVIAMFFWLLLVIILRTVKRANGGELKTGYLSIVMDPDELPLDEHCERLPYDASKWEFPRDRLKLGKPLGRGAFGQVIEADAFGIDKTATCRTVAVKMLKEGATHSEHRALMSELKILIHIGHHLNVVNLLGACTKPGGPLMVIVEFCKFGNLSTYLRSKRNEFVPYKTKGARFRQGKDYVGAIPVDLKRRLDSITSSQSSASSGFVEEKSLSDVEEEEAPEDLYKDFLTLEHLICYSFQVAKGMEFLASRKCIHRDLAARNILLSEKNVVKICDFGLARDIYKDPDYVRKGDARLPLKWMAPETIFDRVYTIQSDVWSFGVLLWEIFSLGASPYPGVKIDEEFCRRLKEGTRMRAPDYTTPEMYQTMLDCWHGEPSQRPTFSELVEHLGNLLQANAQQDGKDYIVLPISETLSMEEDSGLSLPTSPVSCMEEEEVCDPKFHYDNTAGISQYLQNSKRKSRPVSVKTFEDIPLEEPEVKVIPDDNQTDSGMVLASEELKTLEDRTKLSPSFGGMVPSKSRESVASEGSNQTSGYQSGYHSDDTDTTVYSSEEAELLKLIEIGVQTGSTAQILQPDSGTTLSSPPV

Compound	IC50 [1] [nM]	IC50 [2] [nM]	other results
COc1cccc(NC(=O)Nc2ccc(C(=O)N/N=C3\C(=O)Nc4ccc(OC)cc43)cc2)c1	300	110	IC50 [3]: 45800 nM; IC50 [4]: 270 nM; IC50 (HepG2): 2930 nM; IC50 (A498; read-out: IC50): 780 nM; IC50 (MCF7): 27000 nM; IC50 (A549): > 100000 nM
COc1ccc(NC(=O)Nc2ccc(C(=O)N/N=C3\C(=O)Nc4ccc(OC)cc43)cc2)cc1	170	330	–
COc1cccc(NC(=O)Nc2ccc(C(=O)N/N=C3\C(=O)Nc4ccc(Cl)cc43)cc2)c1	420	1290	–
COc1ccc(NC(=O)Nc2ccc(C(=O)N/N=C3\C(=O)Nc4ccc(Br)cc43)cc2)cc1	610	3790	–
COc1ccc2c(c1)/C(=N/NC(=O)c1ccc(NC(=O)Nc3ccccc3)cc1)C(=O)N2	280	3640	–
COc1cccc2c1C(=O)c1c(O)c3c(c(O)c1C2=O)C[C@@](O)(C(=O)CO)C[C@@H]3O[C@H]1C[C@H](N)[C@H](O)[C@H](C)O1 [DOXORUBICIN]	–	–	IC50 [3]: 80300 nM; IC50 (HepG2): 4100 nM; IC50 (A498): 1100 nM; IC50 (A549): 4360 nM
CNC(=O)c1cc(Oc2ccc(NC(=O)Nc3ccc(Cl)c(C(F)(F)F)c3)cc2)ccn1 [SORAFENIB]	–	–	IC50 [3]: 85000 nM; IC50 (HepG2): 5230 nM; IC50 (MCF7): 4270 nM; IC50 (A549): 6110 nM

The remaining compounds from weak to strong by IC50 [1], led by results:

IC50 [1] [nM]	IC50 [2] [nM]	Compound	other results
480	1590	COc1cccc(NC(=O)Nc2ccc(C(=O)N/N=C3\C(=O)Nc4ccc(Br)cc43)cc2)c1	–
460	90	COc1ccc(C(=O)Nc2ccc(C(=O)N/N=C3\C(=O)Nc4ccc(OC)cc43)cc2)cc1	–
390	2010	COc1ccc2c(c1)/C(=N/NC(=O)c1ccc(NC(=O)c3ccc(Cl)cc3)cc1)C(=O)N2	–
390	1820	COc1ccc2c(c1)/C(=N/NC(=O)c1ccc(NC(=O)Nc3ccc(Cl)cc3)cc1)C(=O)N2	–
380	230	COc1ccc(C(=O)Nc2ccc(C(=O)N/N=C3\C(=O)Nc4ccc(Br)cc43)cc2)cc1	–
310	450	O=C(Nc1ccc(C(=O)N/N=C2\C(=O)Nc3ccc(Br)cc32)cc1)Nc1ccc(Cl)c(C(F)(F)F)c1	–
230	100	COc1ccc2c(c1)/C(=N/NC(=O)c1ccc(NC(=O)Nc3ccc(Cl)c(C(F)(F)F)c3)cc1)C(=O)N2	–
